Test results published in PubChem BioAssay (NCI).
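Five compound concentrations were applied to cells in 96-well plates for 48 hours; endpoints were derived by simple linear interpolation of the resulting dose-response curve. TGI is the concentration that stops growth completely.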 Where a SMILES comes first, the peptide text is derived from it. [ ]: non-standard residue; d: D form. The star is where a group is joined. hSer = N[CH](CCO)C(=O)O; Boc = CC(C)(C)OC(=O)*

What was measured:
Assay in all cases: inhibition of tumour cell growth, NCI panel, 48 h
DU-145 prostate = system: DU-145 prostate
SNB-75 CNS = system: SNB-75 CNS
OVCAR-8 ovarian = system: OVCAR-8 ovarian
HOP-62 NSCLC = system: HOP-62 NSCLC
OVCAR-5 ovarian = system: OVCAR-5 ovarian
RXF 393 renal = system: RXF 393 renal
MALME-3M melanoma = system: MALME-3M melanoma
HCC-2998 colon = system: HCC-2998 colon
MDA-MB-231 breast = system: MDA-MB-231 breast
EKVX NSCLC = system: EKVX NSCLC

SMILES | TGI (DU-145 prostate) | TGI (SNB-75 CNS) | TGI (OVCAR-8 ovarian) | TGI (HOP-62 NSCLC) | TGI (OVCAR-5 ovarian) | TGI (RXF 393 renal) | TGI (MALME-3M melanoma) | TGI (HCC-2998 colon) | TGI (MDA-MB-231 breast) | TGI (EKVX NSCLC)
CN(NC(=O)c1ccco1)C1=NCCCCN1 | > 100 µM | > 100 µM | > 100 µM | > 100 µM | > 100 µM | > 100 µM | > 100 µM | > 100 µM | > 100 µM | > 100 µM
N#Cc1c(-c2ccco2)c2c(n(C3OC(CO)C(O)C(O)C3O)c1=S)CCCC2 (stereo not drawn) | > 100 µM | 0.0981 µM | > 100 µM | > 100 µM | > 100 µM | > 100 µM | > 100 µM | > 100 µM | > 100 µM | > 100 µM
CCOC(=O)c1cc2cc(Cc3ccc4[nH]c(C(=O)OCC)cc4c3)ccc2[nH]1 | > 100 µM | 27.9 µM | 23.6 µM | 23 µM | > 100 µM | 29.4 µM | > 100 µM | > 100 µM | 37.9 µM | 78.9 µM
COC(=O)c1ccc(CN2CCc3c([nH]c4ccccc34)C2CO)o1 (stereo not drawn) | > 10 µM | > 10 µM | > 10 µM | > 10 µM |  | > 10 µM | > 10 µM | > 10 µM | > 10 µM | > 10 µM
CCC1(O)C=CC(=O)C=C1 | > 64.4 µM | > 96.1 µM | > 100 µM | 67.5 µM | > 100 µM | 38.2 µM | 28.2 µM | > 100 µM | 36.6 µM | > 100 µM
N#CI1OC(=O)c2ccccc21 | > 100 µM | > 100 µM | > 100 µM | > 100 µM | > 100 µM | > 100 µM |  | > 100 µM | > 100 µM | > 100 µM
COC(=O)[C@]1(C)CCCn2c(=O)n(-c3ccccc3)c(=O)n21 | > 100 µM | > 100 µM | > 100 µM | > 100 µM | > 100 µM | > 100 µM |  | > 100 µM | > 100 µM | > 100 µM
O=C(Cc1ccc(Cl)c(Cl)c1)NCCCN1CCN(CCCN2CCCCC2)CC1 | > 100 µM | 49.3 µM | > 100 µM | 32.1 µM | 46.6 µM | 31.1 µM | 34.7 µM | 9.92 µM | 28.8 µM | 39.3 µM
Oc1c(OCc2nnc(CCCCCCCCc3nnc(COc4ccc5ccccc5c4O)n3Nc3ccccc3)n2Nc2ccccc2)ccc2ccccc12 | 31.9 µM | 35.5 µM | 28.3 µM | 3.77 µM | 28.5 µM | 30.9 µM | 28.8 µM | 21.8 µM | 23.4 µM | 31.6 µM
CCOC(=O)c1ccc(NC2Oc3cc4c(cc3C(c3cc(OC)c(OC)c(OC)c3)C2C)OCO4)cc1 (stereo not drawn) | > 100 µM | 0.704 µM | 33 µM | > 71.4 µM | > 100 µM | 93.9 µM | 0.677 µM | 6.32 µM | 2.24 µM | > 100 µM
c1cc(-c2cscc2-c2ccsc2)cs1 | > 100 µM | > 100 µM |  | > 100 µM | > 100 µM | > 100 µM |  | 91.8 µM | > 100 µM | > 100 µM
COc1ccc(CN2C(=O)CCC/C=C\[C@H]2CI)cc1 | 26 µM | 17.5 µM | 27.5 µM | 31.1 µM | 24.5 µM | 17.2 µM | 24.4 µM | 23.8 µM | 23 µM | 22.5 µM
NC1=CN(CCCO)C2=N/C(=C\c3ccco3)C(=O)N12 | > 100 µM | > 100 µM | > 100 µM | > 100 µM | > 100 µM | > 100 µM | > 100 µM | > 100 µM | > 100 µM | > 100 µM
c1ccc(COc2ccc(C[P+](c3ccccc3)(c3ccccc3)c3ccccc3)cc2)cc1 | 12.9 µM | 2.99 µM | 2.18 µM | 3.37 µM | 2.2 µM | 0.361 µM | 1.82 µM | 4.81 µM | 4.86 µM | 3.04 µM
O=C(CCSC(CC(=O)c1ccc(Cl)cc1)c1ccc(Cl)cc1)Nc1ccc(Cl)cc1 (stereo not drawn) | 27 µM | 36.4 µM | 29.1 µM | 29.1 µM | 31.6 µM | 28.2 µM | 30.6 µM | 27 µM | 33.4 µM | 25.4 µM
COc1c2nc(CCl)n(C)c(=O)c2c(OC)c2c(=O)n(C)c(CCl)nc12 | 14 µM | 3.8 µM | 13.2 µM | 5.7 µM | 7.75 µM | 4.14 µM | 3.44 µM | 2.65 µM | 2.88 µM | 11.8 µM
N#Cc1[nH]c(=O)n(-c2ccc([N+](=O)[O-])cc2)c1N | > 10 µM | > 10 µM | > 10 µM | > 10 µM | > 10 µM | > 10 µM | > 10 µM | > 10 µM | > 10 µM | > 10 µM
N/C(CC/C(N)=N\O)=N\O | > 100 µM | > 100 µM |  | > 100 µM | > 100 µM | > 100 µM | > 100 µM | > 100 µM | > 100 µM | > 100 µM

SMILES | TGI (DU-145 prostate) | TGI (SNB-75 CNS) | TGI (OVCAR-8 ovarian) | TGI (HOP-62 NSCLC) | TGI (OVCAR-5 ovarian) | TGI (RXF 393 renal) | TGI (MALME-3M melanoma) | TGI (HCC-2998 colon) | TGI (MDA-MB-231 breast) | TGI (EKVX NSCLC)
C[N+]1(C)CC=C(N2CCOCC2)CC1 | > 10 µM | > 10 µM | > 10 µM | > 10 µM |  | > 10 µM | > 10 µM | > 10 µM | > 10 µM | > 10 µM
COC(=O)OC[C@H]1O[C@@H](n2cc(C)c(=O)[nH]c2=O)CC1OC(=O)OC (stereo partly drawn) | > 100 µM | > 100 µM | > 100 µM | > 100 µM | > 100 µM | > 100 µM | > 100 µM | > 100 µM | > 100 µM | > 100 µM
O=S(=O)(O)c1cc(Cl)c(O)c2ncc(Cl)cc12 | > 100 µM | > 100 µM | > 100 µM | > 100 µM | > 100 µM | > 100 µM |  | > 100 µM | > 100 µM | > 100 µM
Nc1c(Br)cc(-c2cc(Br)c(N)c(Br)c2)cc1Br | > 100 µM | > 100 µM | > 100 µM | > 100 µM | > 100 µM | > 100 µM | > 100 µM | > 100 µM | > 100 µM | > 100 µM
COC1/C=C\C=C(/C)C(=O)NC2=CC(=O)C(NCCCl)=C(CC(C)CC(OC)C(O)C(C)/C=C(/C)C1OC(N)=O)C2=O (stereo not drawn) | 11.4 µM | 3.81 µM | 10.5 µM | 5.91 µM | 11.7 µM | 1.2 µM | 1.48 µM | 1 µM | 20.4 µM | 22.7 µM
O=[N+]([O-])/C(C(Cl)=C(Cl)Cl)=C1\Nc2ccccc2O1 | > 100 µM | 64.8 µM | 63.9 µM | > 100 µM | > 100 µM | > 100 µM | > 100 µM | > 100 µM | > 100 µM | > 100 µM
[N-]=N[N+]#I1OC(C(F)(F)F)(C(F)(F)F)c2ccccc21 | 38 µM | 32.5 µM | 34.5 µM | 28.4 µM | 28.5 µM | 30.7 µM |  | 31.8 µM | 29 µM | 34 µM
Cc1c2c(n3c(nc4ccccc43)c1C#N)N(c1ccc(Cl)cc1)CC2 | > 100 µM | > 100 µM | > 100 µM | > 100 µM | > 100 µM | > 100 µM | > 100 µM | > 100 µM | > 100 µM | > 100 µM
C1=C2SSC3=CC=C(SSc4ccc(s4)SSC4=CC=C(SSC(=C1)S2)S4)S3 | > 100 µM | > 100 µM | > 100 µM | > 100 µM | > 100 µM | > 100 µM | > 100 µM | > 100 µM | > 100 µM | > 100 µM
O=C1N[C@H]2c3c(Cl)sc(Cl)c3C(=O)[C@H]2O1 | > 54.6 µM | 34.9 µM | 12.2 µM | 42 µM | 51.1 µM | > 79.8 µM | 24.1 µM | 19.9 µM | > 58.2 µM | 27.9 µM
CCOC(=O)C(NCc1ccccc1)(NC(=O)c1ccccc1)C(F)(F)F (stereo not drawn) | > 100 µM | > 100 µM | > 100 µM | > 100 µM | > 100 µM | > 100 µM | > 100 µM | > 100 µM | 83.6 µM | > 100 µM
COCCC(NC(=O)C(CC(C)C)NC(=O)OC(C)(C)C)C(N)=O (stereo not drawn) (Boc-Leu-[hSer](Me)-NH2; configuration not given here) | > 100 µM | > 100 µM | > 100 µM | > 100 µM |  | > 100 µM | > 100 µM | > 100 µM | > 100 µM | > 100 µM
C/C(=N\Nc1nc2cc(C)ccc2s1)c1ccccn1 | 5.65 µM | 22.7 µM | 12.1 µM | 3.62 µM | 19.9 µM | > 22.9 µM | > 22 µM | 28.5 µM | 0.93 µM | > 21 µM
COc1ccc2nc3ccc(OC)cc3c(S(=O)Cc3ccc([N+](=O)[O-])cc3)c2c1 (stereo not drawn) | 6.59 µM | 35.9 µM | 13.1 µM | 30.7 µM | 34.5 µM | 28.6 µM | 5.18 µM | 34 µM | 29.9 µM | 32.5 µM
CN(C)CC1CCC/C(=C\c2ccc(N(C)C)cc2)C1=O (stereo not drawn) | 34 µM | 30.7 µM | 18 µM | 33 µM | 26.9 µM | 21.2 µM | 24.5 µM | 29.4 µM | 15.7 µM | 30.4 µM
COc1c(C2(c3ccc(F)cc3)SCCCS2)c(=O)c1=O | > 100 µM | > 100 µM | > 100 µM | > 100 µM | > 100 µM | > 100 µM | > 100 µM | > 100 µM | > 100 µM | > 100 µM
Fc1cccc(F)c1C1SCC2=Nc3ccccc3CN21 (stereo not drawn) | > 100 µM | 81.8 µM |  | 84.4 µM | > 100 µM | 63.2 µM |  | > 100 µM | > 100 µM | > 100 µM
